{"source": "patent US20230277459A1", "about": "“PHARMACEUTICAL COMPOSITIONS HAVING HIGH DRUG LOADINGS OF MEDIUM CHAIN TRIGLYCERIDES AND METHODS RELATED THERETO” (CERECIN INC., priority 2017, published 2023)", "assay": "In-vitro digestion pH titration", "format": "in vitro ADME", "conditions": "FIG. 9", "excerpt": "The digestion pH titration curves for both compositions, as well as control samples F-11 and the Miglyol 808 oil are shown in FIG. 9."}
{"smiles": "CCCCCCCC(=O)OCC(COC(=O)CCCCCCC)OC(=O)CCCCCCC", "note": "[Miglyol 808 oil, caprylic triglyceride]", "values": [{"measurement": "digestion pH titration curve", "result": "sigmoidal titration curve, and is slower to reach the endpoint"}]}
